Data as given in patent publication US7635572B2, “Methods for conducting assays for enzyme activity on protein microarrays” (Life Technologies Corporation, priority 2004, dated 2009).
Like-named read-outs stand apart in the source and are kept apart here.

Tests used:
Experiment in all cases: Further analysis of a plurality of inhibitors and a plurality of kinases on microarray (Example IX, Table 5);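 also: inhibition of each kinase by the inhibitors is given as a qualitative level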;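 as to Inhibition level, CDKL3: level 0 no or unclear inhibition to Level 2 substantial inhibition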;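 as to Inhibition level, FYN: level 0 no or unclear inhibition to Level 2 substantial inhibition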;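 as to Inhibition level, MAP2K4: level 0 none or unclear Level 1 marginal Level 2 substantial inhibition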;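 as to Inhibition level, PIM1: level 0 no or unclear inhibition to Level 2 substantial inhibition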;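 as to Inhibition level, STK6: level 0 no or unclear inhibition to Level 2 substantial inhibition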;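 as to Inhibition level, TGFBR2: level 0 none or unclear then 1 little or marginal then 2 substantial inhibition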;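 as to Inhibition level, TLK2: level 0 none or unclear Level 1 marginal Level 2 substantial inhibition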
Format in all cases: biochemical
[1] = molecular target: T1, plurality of kinases (Table 5) (Homo sapiens, UniProt O14965); conditions: plate C6
T1 sequence (O14965 1-403): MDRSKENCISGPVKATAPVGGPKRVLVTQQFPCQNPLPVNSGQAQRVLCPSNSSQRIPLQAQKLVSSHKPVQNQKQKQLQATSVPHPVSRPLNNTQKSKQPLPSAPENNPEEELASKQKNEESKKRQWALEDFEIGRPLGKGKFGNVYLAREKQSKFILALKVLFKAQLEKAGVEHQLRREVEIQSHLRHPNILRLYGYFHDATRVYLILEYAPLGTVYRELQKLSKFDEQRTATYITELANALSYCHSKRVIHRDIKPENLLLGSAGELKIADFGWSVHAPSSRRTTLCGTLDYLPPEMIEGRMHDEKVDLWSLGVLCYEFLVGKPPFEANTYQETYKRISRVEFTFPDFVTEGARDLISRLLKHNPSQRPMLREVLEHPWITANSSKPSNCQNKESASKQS

[2] = molecular target: plurality of kinases (Table 5) (Homo sapiens, UniProt P06239)
Chain of plurality of kinases (Table 5) (Homo sapiens, UniProt P06239) (P06239 whole entry): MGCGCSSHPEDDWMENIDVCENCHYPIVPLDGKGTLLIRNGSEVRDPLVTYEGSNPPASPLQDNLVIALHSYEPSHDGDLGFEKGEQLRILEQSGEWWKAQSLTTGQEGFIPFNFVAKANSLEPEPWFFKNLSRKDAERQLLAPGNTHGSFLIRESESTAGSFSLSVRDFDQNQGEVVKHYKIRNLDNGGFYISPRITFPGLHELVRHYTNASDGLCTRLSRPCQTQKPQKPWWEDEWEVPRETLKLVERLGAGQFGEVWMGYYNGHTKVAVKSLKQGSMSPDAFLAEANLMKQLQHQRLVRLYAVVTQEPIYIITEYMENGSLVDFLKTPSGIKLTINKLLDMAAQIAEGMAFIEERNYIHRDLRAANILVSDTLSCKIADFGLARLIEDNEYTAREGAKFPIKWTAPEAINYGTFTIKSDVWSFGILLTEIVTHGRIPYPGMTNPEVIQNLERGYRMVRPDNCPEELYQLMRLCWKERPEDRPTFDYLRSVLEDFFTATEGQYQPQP

[3] = molecular target: plurality of kinases (Table 5) (Homo sapiens, UniProt P06241)
Chain of plurality of kinases (Table 5) (Homo sapiens, UniProt P06241) (P06241 whole entry): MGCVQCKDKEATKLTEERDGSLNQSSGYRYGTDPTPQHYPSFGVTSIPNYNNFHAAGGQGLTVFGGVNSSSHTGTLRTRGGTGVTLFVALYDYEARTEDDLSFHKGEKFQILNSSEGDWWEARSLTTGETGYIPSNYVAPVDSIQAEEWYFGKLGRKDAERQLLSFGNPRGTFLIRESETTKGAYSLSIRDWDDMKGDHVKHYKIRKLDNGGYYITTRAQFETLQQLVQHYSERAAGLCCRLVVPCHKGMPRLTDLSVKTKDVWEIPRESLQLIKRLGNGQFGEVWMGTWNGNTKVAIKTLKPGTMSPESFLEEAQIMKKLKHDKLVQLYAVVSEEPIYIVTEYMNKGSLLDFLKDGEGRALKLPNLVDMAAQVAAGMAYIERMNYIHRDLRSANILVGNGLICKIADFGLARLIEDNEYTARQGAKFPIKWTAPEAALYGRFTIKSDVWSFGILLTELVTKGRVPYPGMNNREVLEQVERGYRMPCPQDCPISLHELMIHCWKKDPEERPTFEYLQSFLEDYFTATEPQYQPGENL

[4] = molecular target: plurality of kinases (Table 5) (Homo sapiens, UniProt P11309)
Chain of plurality of kinases (Table 5) (Homo sapiens, UniProt P11309) (P11309 whole entry): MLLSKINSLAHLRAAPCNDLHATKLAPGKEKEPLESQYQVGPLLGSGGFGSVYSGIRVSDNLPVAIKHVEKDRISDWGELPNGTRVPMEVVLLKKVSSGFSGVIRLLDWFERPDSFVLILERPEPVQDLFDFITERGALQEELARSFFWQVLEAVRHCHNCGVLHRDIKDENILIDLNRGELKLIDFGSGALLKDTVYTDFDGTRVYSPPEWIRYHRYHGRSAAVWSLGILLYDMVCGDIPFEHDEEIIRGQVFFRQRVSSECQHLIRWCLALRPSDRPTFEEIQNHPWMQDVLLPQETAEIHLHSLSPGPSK

[5] = molecular target: plurality of kinases (Table 5) (Homo sapiens, UniProt P24723); conditions: plate B3
Chain of plurality of kinases (Table 5) (Homo sapiens, UniProt P24723) (P24723 whole entry): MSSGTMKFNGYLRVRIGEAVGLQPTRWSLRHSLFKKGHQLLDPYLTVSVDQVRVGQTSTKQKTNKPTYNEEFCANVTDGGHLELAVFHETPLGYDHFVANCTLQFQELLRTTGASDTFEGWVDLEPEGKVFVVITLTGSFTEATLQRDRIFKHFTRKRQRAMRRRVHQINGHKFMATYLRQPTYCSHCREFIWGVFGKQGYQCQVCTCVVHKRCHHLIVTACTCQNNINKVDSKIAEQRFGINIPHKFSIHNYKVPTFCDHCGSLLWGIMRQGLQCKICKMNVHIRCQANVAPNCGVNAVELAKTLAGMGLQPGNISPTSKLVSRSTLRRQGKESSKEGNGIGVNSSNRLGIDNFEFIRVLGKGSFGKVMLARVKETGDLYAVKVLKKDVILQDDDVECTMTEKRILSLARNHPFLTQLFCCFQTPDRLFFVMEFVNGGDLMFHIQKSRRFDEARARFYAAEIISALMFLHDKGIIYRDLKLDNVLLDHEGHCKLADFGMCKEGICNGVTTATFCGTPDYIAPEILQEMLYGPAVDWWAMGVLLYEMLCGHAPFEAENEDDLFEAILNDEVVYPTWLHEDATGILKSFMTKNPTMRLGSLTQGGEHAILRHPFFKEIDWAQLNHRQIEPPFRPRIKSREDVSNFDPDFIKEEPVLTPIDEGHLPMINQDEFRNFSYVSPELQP

[6] = molecular target: plurality of kinases (Table 5) (Homo sapiens, UniProt P37173); conditions: plate C7
Chain of plurality of kinases (Table 5) (Homo sapiens, UniProt P37173) (P37173 23-567): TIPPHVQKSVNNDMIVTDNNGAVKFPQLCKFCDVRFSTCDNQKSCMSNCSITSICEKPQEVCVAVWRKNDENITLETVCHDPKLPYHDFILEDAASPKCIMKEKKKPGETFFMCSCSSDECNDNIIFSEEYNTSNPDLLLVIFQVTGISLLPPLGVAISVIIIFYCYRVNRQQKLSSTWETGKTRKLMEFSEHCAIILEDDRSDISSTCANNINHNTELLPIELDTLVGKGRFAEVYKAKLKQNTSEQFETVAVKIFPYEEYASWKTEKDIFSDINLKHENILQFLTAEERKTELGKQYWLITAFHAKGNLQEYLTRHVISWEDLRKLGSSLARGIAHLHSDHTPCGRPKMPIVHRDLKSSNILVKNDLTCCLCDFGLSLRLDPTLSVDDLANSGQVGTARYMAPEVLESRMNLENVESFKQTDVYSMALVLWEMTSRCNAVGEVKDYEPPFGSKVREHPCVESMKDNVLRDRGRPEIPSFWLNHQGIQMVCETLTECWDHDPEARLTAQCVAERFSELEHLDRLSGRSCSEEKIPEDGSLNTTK

[7] = molecular target: T2, plurality of kinases (Table 5) (Homo sapiens, UniProt P45985)
T2 sequence (P45985 1-399): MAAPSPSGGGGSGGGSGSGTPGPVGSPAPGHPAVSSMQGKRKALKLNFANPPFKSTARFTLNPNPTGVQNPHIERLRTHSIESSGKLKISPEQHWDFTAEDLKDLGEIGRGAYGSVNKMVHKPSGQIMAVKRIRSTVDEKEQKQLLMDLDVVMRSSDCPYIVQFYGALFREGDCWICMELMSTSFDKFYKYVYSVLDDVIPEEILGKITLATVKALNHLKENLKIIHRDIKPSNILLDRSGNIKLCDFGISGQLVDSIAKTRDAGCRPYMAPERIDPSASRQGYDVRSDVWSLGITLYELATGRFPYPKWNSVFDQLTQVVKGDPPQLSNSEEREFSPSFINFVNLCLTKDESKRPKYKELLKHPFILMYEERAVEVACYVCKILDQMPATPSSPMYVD

[8] = molecular target: plurality of kinases (Table 5) (Homo sapiens, UniProt P68400)
Chain of plurality of kinases (Table 5) (Homo sapiens, UniProt P68400) (P68400 whole entry): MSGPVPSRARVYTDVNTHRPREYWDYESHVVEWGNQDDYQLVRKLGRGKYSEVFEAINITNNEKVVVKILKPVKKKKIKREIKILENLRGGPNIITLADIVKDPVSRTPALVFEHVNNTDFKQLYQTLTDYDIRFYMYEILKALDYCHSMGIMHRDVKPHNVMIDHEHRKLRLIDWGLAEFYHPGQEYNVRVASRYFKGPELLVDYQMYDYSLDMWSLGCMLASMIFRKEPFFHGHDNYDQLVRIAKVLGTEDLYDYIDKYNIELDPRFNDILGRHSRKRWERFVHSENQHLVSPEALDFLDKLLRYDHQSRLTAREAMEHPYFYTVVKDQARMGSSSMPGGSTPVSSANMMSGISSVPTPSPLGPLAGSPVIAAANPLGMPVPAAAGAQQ

[9] = molecular target: plurality of kinases (Table 5) (Homo sapiens, UniProt Q86UE8); conditions: plate C8
Chain of plurality of kinases (Table 5) (Homo sapiens, UniProt Q86UE8) (Q86UE8 whole entry): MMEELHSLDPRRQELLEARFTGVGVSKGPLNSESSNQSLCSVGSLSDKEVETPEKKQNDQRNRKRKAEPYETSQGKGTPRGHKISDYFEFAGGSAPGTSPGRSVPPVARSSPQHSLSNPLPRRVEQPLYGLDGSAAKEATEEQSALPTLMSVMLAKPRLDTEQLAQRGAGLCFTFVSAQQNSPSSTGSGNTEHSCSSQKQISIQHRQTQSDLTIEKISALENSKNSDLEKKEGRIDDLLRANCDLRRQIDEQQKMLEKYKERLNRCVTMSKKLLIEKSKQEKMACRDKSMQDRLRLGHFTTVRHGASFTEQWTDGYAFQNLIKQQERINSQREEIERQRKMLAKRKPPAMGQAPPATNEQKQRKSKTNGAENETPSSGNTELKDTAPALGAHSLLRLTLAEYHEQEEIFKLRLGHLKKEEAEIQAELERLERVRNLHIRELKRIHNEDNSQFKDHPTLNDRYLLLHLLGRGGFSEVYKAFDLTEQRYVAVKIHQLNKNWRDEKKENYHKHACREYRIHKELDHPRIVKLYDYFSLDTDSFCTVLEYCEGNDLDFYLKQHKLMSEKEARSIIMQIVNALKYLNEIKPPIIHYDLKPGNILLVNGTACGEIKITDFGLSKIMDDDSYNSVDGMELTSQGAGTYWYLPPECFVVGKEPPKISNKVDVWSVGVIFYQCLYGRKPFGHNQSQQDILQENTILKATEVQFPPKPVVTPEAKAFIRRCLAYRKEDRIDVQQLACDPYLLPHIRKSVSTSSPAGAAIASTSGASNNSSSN

[10] = molecular target: plurality of kinases (Table 5) (Homo sapiens, UniProt Q8IVW4); conditions: plate F12; inhibitor 100 uM
Chain of plurality of kinases (Table 5) (Homo sapiens, UniProt Q8IVW4) (Q8IVW4 whole entry): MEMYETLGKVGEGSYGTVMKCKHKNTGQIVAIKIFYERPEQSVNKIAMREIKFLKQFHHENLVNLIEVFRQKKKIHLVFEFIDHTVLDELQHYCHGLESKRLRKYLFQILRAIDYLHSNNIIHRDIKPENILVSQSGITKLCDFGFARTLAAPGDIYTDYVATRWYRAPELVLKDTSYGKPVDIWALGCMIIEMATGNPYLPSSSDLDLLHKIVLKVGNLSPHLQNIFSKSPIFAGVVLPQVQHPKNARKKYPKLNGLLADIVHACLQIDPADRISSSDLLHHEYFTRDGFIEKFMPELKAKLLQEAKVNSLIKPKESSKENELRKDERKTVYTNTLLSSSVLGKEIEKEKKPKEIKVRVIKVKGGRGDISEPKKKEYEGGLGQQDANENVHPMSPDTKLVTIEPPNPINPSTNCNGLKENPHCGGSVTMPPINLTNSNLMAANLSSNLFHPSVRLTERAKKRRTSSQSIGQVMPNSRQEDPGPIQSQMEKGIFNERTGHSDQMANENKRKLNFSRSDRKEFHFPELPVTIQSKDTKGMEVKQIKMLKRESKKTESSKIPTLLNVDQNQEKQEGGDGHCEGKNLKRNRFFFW

[11] = molecular target: T3, plurality of kinases (Table 5) (Homo sapiens, UniProt Q96KB5); conditions: plate G7
T3 sequence (Q96KB5 1-322): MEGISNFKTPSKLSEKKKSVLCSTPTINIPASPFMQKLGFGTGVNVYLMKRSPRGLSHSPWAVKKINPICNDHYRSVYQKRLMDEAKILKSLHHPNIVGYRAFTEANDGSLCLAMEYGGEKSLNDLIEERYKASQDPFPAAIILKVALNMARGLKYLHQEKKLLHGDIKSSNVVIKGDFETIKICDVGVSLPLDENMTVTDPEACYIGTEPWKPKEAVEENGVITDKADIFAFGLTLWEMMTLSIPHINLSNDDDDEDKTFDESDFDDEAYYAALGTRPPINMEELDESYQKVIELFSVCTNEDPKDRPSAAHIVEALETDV

[12] = molecular target: T4, plurality of kinases (Table 5) (Homo sapiens, UniProt Q99759); conditions: plate A1
T4 sequence (Q99759 1-626): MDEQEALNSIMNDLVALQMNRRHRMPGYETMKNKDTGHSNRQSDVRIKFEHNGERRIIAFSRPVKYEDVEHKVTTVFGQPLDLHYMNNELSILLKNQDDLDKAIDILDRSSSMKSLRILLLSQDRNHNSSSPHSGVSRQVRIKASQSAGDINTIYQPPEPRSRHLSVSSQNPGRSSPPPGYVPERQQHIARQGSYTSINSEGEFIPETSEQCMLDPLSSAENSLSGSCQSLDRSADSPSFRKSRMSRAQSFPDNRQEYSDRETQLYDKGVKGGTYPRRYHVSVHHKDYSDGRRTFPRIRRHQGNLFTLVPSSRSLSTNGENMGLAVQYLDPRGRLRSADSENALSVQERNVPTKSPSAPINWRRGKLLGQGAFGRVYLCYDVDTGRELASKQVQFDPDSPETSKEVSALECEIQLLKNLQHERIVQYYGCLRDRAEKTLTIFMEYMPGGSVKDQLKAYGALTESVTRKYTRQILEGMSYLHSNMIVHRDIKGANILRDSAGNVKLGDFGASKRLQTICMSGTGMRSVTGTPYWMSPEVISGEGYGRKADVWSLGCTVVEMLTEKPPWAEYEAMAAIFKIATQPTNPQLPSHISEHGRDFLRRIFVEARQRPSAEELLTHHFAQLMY

[13] = plate A4, Domain 0, inhibitor 100 uM

Structure (SMILES) | Inhibition level, STK6 ([1]; inhibitor 100 uM) | Inhibition level, FYN [3, 13] | Inhibition level, PIM1 ([4]; plate C2, inhibitor 100 uM) | Inhibition level, PRKCH ([5]; inhibitor 100 uM) | Inhibition level, TGFBR2 ([6]; inhibitor 100 uM) | Inhibition level, MAP2K4 ([7]; plate E6, inhibitor 100 uM) | Inhibition level, CSNK2A1 ([8]; plate D9, inhibitor 100 uM) | Inhibition level, TLK2 ([9]; inhibitor 100 uM) | Inhibition level, CDKL3 [10] | Inhibition level, TOPK ([11]; inhibitor 100 uM) | Inhibition level, MAP3K3 ([12]; inhibitor 100 uM) | Inhibition level, LCK ([2]; plate A6, inhibitor 100 uM) | other results
COc1cc2ncnc(Nc3cccc(Cl)c3)c2cc1OC [AG 1478] | 0 | 2 | 1 | 0 | 2 | 0 | 2 | 2 | 1 | 1 | 2 |  | Inhibition level, LCK [2]: 2
CC(=O)c1c(O)c(C)c(O)c(Cc2c(O)c3c(c(C(=O)/C=C/c4ccccc4)c2O)OC(C)(C)C=C3)c1O [Rottlerin (Mallotoxin)] | 2 | 2 | 2 | 2 | 2 | 1 | 2 | 2 | 1 | 2 | 2 | 2 | 
CN[C@@H]1C[C@H]2O[C@@](C)([C@@H]1OC)n1c3ccccc3c3c4c(c5c6ccccc6n2c5c31)C(=O)NC4 [Staurosporine] |  |  |  |  |  |  |  |  |  |  |  |  | Inhibition level, STK6 ([1]; Staurosporine 21.5 uM): 0; Inhibition level, FYN [3]: 2; Inhibition level, PIM1 [4]: 2; Inhibition level, TGFBR2 ([6]; Staurosporine 21.5 uM): 2; Inhibition level, MAP2K4 [7]: 0; Inhibition level, CSNK2A1 [8]: 2; Inhibition level, TLK2 ([9]; Staurosporine 21.5 uM): 2; Inhibition level, TOPK ([11]; Staurosporine 21.5 uM): 2; Inhibition level, MAP3K3 ([12]; Staurosporine 21.5 uM): 2
N#C/C(=C/c1ccc(O)c(O)c1)C(=O)NCc1ccccc1 [AG 490] | 2 | 2 | 2 | 2 | 2 | 0 | 2 | 2 | 2 | 2 | 2 | 2 | 
O=S(=O)(NCCNC/C=C/c1ccc(Br)cc1)c1cccc2cnccc12 [H-89] | 0 | 2 | 2 | 2 | 2 | 1 | 0 | 2 | 1 | 2 | 2 | 2 | 
CC(C)(C)n1nc(-c2ccc(Cl)cc2)c2c(N)ncnc21 [PP2] | 2 |  | 2 | 2 | 2 | 2 | 2 | 2 | 2 | 2 | 2 |  | 
O=c1c(O)c(-c2ccc(O)c(O)c2)oc2cc(O)cc(O)c12 [Quercetin] |  |  |  | 0 | 0 | 0 |  | 0 | 0 | 0 | 0 |  | 
O=c1c(-c2ccc(O)cc2)coc2cc(O)cc(O)c12 [Genistein] | 2 | 2 | 2 | 2 | 2 | 2 | 2 | 2 | 0 | 2 | 2 | 2 | Inhibition level, STK6 ([1]; Genistein <3.7 mM): 0; Inhibition level, LCK ([2]; plate A6, Genistein <3.7 mM): 0; Inhibition level, FYN ([3]; plate A4, Domain 0, Genistein <3.7 mM): 1; Inhibition level, PIM1 ([4]; plate C2, Genistein <3.7 mM): 0; Inhibition level, PRKCH ([5]; Genistein, conc. not given): 0; Inhibition level, TGFBR2 ([6]; Genistein <3.7 mM): 1; Inhibition level, MAP2K4 ([7]; plate E6, Genistein <3.7 mM): 0; Inhibition level, CSNK2A1 ([8]; plate D9, Genistein, conc. not given): 0; Inhibition level, TLK2 ([9]; Genistein <3.7 mM): 0; Inhibition level, TOPK ([11]; Genistein <3.7 mM): 0; Inhibition level, MAP3K3 ([12]; Genistein <3.7 mM): 2
